The record followed here is article PMC10590383, “Repurposing conformational changes in ANL superfamily enzymes to rapidly generate biosensors for organic and amino acids” (Nature Communications, 2023).

The assay can be described thus: Dose–response curve of purified […]s with histidine. Also on record: key to Dose-response, AVE of Repeat 1-3 (Fig. 3 k): normalized ΔF/F0 (fluorescence change over baseline). The class given is biochemical. The protocol:
Fig. 3 Dose–response curves and fluorescence spectrums of […]s. a, c, e, g, i, k Dose–response curve of purified […]s with increasing concentrations of ligand in 100 mM Tris-HCl buffer (pH=7.5). The normalized ΔF/F0 value increased after ligand binding. All data shown are mean ± S.D. (n = 3 biologically independent samples). b, d, f, h, j, l The fluorescence spectra of […]s changed as the ligand concentration increased. All data shown are mean ± S.D. (n = 3 biologically independent samples). Source data are provided as a Source data file.
The study conducted dose–response curve, substrate specificity, and fluorescent spectrum analyses in 100-mM Tris buffer (pH = 7.5), while pH stability experiments were performed in 100-mM Tris buffer at three different pH values (6.5, 7.5, and 8.5) at room temperature. […] protein at a concentration of 0.75 μM, various small molecule concentrations, 1 mM ATP, and 2.5 mM MgCl2 were used in the experiments. Fluorescent signals were detected using a Microplate Reader (Synergy H4, Bio Tek) at an excitation/emission wavelength of 460 nm/510 nm or 480 nm/510 nm. The dose-response curve was determined immediately after the addition of the analyte. The total duration of the measurement was 15 min, with readings taken at one-minute intervals. The dose-response curve was plotted using the fluorescence values obtained after achieving stability in the fluorescence signal. The dose-response curves were fitted using the logistic model LOGISTIC5 available in Origin 2021, which could provide a more adequate fit to asymmetric dose-response data[62],[63]. Excitation spectra were scanned from 300 to 540 nm with a step size of 5 nm, and the emission wavelength was set to 560 nm. Emission spectra were scanned from 470 to 700 nm with a step size of 5 nm, and the excitation wavelength was set to 450 nm. The thermal stability of […] was analyzed using the UNcle multifunctional protein stability analysis system. Measurements were performed in 20 mM MOPS buffer with 2 mM DTT at a sample concentration of 1 mg/mL. Absolute fluorescence quantum yields were measured using an absolute photoluminescence quantum yield spectrometer (FS5, Edinburgh). […]
Supplementary Fig. 2 Dose–response curves and fl uorescen ce spectr ums of GEC FINDERs. a and c, Dose– re spons e curves of puri fi ed GECF INDE R-P he1 and 2 with increas ing concen tra tions of phenylalanine (1 nM to 100 μM). The norm alized ΔF/F 0 value increas ed aft er phenylalanine binding (4 60 nm excita tion) . b and d, The fl uore scen ce spect ra of GECF IN DER-P he1 and 2 changed as the phe nylalanine concen tra tion incre ased fro m 1 nM to 100 μM. e and g, Dose–re spon se curv es of puri fied GECF IN DER-Il e1 and 2 with increas ing concen tra tio ns of isoleucine (50 nM to 10 mM). The norm alized ΔF/F 0 value increas ed aft er isoleucine binding (4 80 nm excita tion) . f and h, The fl uore scen ce spect ra of GECF INDE R-Il e1 and 2 change d as the isoleucine concen tration increas ed fro m 0.5 μM to 10 mM. i, Dose–re spon se curv e of puri fi ed GECF INDE R-H is1 with increas ing concen tra tio ns of histid ine (5 nM to 1 mM). The Norm alized ΔF/F 0 increas ed aft er histidine binding (480 nm excita tion). j, The fl uore scen ce spect ra of GECFIN DER-H is1 changed as the histid ine concen tra tion increas ed fro m 5 nM to 1 mM. k, Diffe re nce in fl uore scen ce intensity of GECF INDE R-b enzoic aci d in the pre sence of 10 µM benzoic aci d compare d to the cont ro l (0 µM benzoic aci d). […] (n=3 biological ly independent samples). *p ≤ 0.05, ***p ≤ 0.001, ****p ≤ 0.0001, and n.s. indicat ed no signifi can t diffe re nce (S tude nt’s two-t aile d t-t est). Source data are provi ded as a Source Data file . […]

Regarding `N[C@@H](Cc1cnc[nH]1)C(=O)O` [His], the “Dose-response, AVE of Repeat 1-3 (Fig. 3 k)” value is, setting by setting: (His 0.005 μM) -4.366e-17; (His 0.01 μM) 0.01906; (His 0.05 μM) 0.01899; (His 0.5 μM) 0.05174; (His 5 μM) 0.1739; (His 10 μM) 0.234. The “Dose-response, AVE of Repeat 1-3 (Fig. 3 k)” value is, setting by setting: (His 25 μM) 0.2903; (His 50 μM) 0.3383; (His 100 μM) 0.377; (His 500 μM) 0.4545; (His 750 μM) 0.4382; (His 1000 μM) 0.4348. Besides, the “fluorescence intensity, AVE of 3 repeats” value (Supplementary Fig. 3 h, His 0.75 mM) is 10877.
